Consider two compounds from patent publication US8906925B2, “Pyrido[4,3-B]indoles containing rigid moieties” (Medivation Technologies, Inc., priority 2008, dated 2014).

The test system of one experiment is C57Bl/6J mice. Put plainly: Elevated plus maze (EPM) test. The format is in vivo, mouse. Conditions: 0.03, 0.1, and 1 mg/kg, oral. An excerpt:
This study aimed to test the anxiolytic properties of Compound No. 90 using the elevated plus maze (EPM) test in C57Bl/6J mice.
Male C57Bl/6J mice from Jackson Laboratories (Bar Harbor, Me.) were used for the […]. Mice were received at 6-weeks of age. Upon receipt, mice were assigned unique identification numbers (tail marked) and were group housed with 4 mice/cage in OPTI mouse ventilated cages. All animals remained housed in groups of four during the remainder of the study. All mice were acclimated to the colony room for approximately 2 week prior to testing and were subsequently tested at an average age of 8 weeks of age. During the period of acclimation, mice and rats were examined on a regular basis, handled, and weighed to assure adequate health and suitability. Animals were maintained on a 12 h/12 h light/dark cycle. The room temperature was maintained between 20 and 23° C. with a relative humidity maintained between 30% and 70%. Chow and water were provided ad libitum for the duration of the study. In each test, animals were randomly assigned across treatment groups. […]
The elevated plus maze test assessed anxiety. […] The time spent, distance traveled and entries in each arm were automatically recorded by the computer. […]
Data were analyzed using analysis of variance (ANOVA) followed by Fisher's LSD post hoc analysis when appropriate. […]

In experiment [1] the test system is rat mixed cortical cultures. Briefly: Neurite outgrowth in rat mixed cortical cultures. The format is cell-based. Conditions: 50 nM, 48 h, vs vehicle. The method, then:
Cortical mixed cultures are prepared from E18 Wistar rat embryos. The cortices are dissected out and the tissue was cut to small pieces. The cells are separated by 15-min. incubation with DNase and papain. The cells are collected by centrifugation (1500 rpm, 5 min.). The tissue is triturated with a pipette and the cells are plated using the micro-islet protocol (20 000 cells in […] medium) on poly-L-lysine coated 48 wells, in MEM supplemented with 2 mM glutamine, […] gentamicin, 10% heat-inactivated fetal bovine serum (FBS-HI) and 10% heat-inactivated horse serum (HS-HI). After the cells had attached to the well, 250 μl medium is added to the wells. […] BDNF levels in the conditioned media are determined with a BDNF ELISA using the manufacturers (Promega, BDNF Emax® ImmunoAssay System, catalog number: G7610) instructions.
The cultures are fixed with 4% formaldehyde in 0.01 M PBS for 30 min. and washed once with PBS. […] The immunopositive cells are visualized by a fluorescence microscope equipped with appropriate filter set, and documented by a high resolution image capturing. The number of cells per field (4 field per well) are counted, and the neurite outgrowth was quantified using Image Pro Plus software. […]
Compounds of the invention were evaluated on their effect on neurite outgrowth in rat mixed neuronal cultures. […]

As for `C/C(=C\n1c2c(c3cc(Cl)ccc31)CN(C)CC2)c1ccncc1` [Compound 90, (E)-8-chloro-2,3,4,5-tetrahydro-2-methyl-5-(2-(pyridin-4-yl)prop-1-enyl)-1H-pyrido[4,3-b]indole], the “anxiolytic-like effect in the EPM test compared to vehicle” value in the experiment on C57Bl/6J mice was “did not exert any anxiolytic-like effect”.
In the case of `C/C(=C\n1c2c(c3cc(Cl)ccc31)CN(C)CC2)c1ccc(F)cc1` [Compound 83, (E)-8-chloro-5-(2-(4-fluorophenyl)prop-1-enyl)-2,3,4,5-tetrahydro-2-methyl-1H-pyrido[4,3-b]indole], the “Mean Process+Branch Number (number of branched processes)” value in experiment [1] is reported as “significantly increased”.
